From ChEMBL document CHEMBL1201862, “PubChem BioAssay data set” (2004)
The source made the active and inactive calls.

What was measured:
[1] = system: HEK293; assay: cells; type: functional, cell-based; conditions: Homo sapiens
[2] = target: T1, Nucleotide-binding oligomerization domain-containing protein 2 (Homo sapiens, UniProt Q9HC29); assay: NOD2 inhibitors, SAR follow-up, set 2 (AID 2475); type: functional
[3] = system: HEK293; assay: NOD2 signaling inhibitors in MDP-stimulated cells, cell-based, uHTS, luminescence (AID 2001); type: functional; conditions: Homo sapiens
[4] = target: T1, Nucleotide-binding oligomerization domain-containing protein 2; assay: NOD2 signaling inhibitors, cell-based, luminescence, uHTS, HEK293 (AID 1566); type: functional
[5] = target: T1, Nucleotide-binding oligomerization domain-containing protein 2; assay: PubChem AID 2334; type: functional
[6] = target: T2, Tumor necrosis factor (Homo sapiens, UniProt P01375); assay: TNFa-triggered NF-kB activation inhibitors, SAR follow-up, cell-based, revised (AID 2337); type: functional
[7] = system: HEK293; assay: cells; type: functional, cell-based; conditions: Homo sapiens; remark: listed apart in the source
[8] = system: HEK293; assay: cells; conditions: Homo sapiens
[9] = system: HEK293; assay: NOD1 signaling inhibitors, primary screen, cell-based, luminescence, uHTS (AID 1578); type: functional; conditions: Homo sapiens
[10] = system: HEK293; assay: SAR analysis of compounds that are cytotoxic to HEK293 - Set 2. [Related pubchem assays (depositor defined):AID1575, AID1578, AID1849, AID2001, AID2333, AID2334, AID2335, AID2337, AID2800]; type: functional, cell-based; conditions: Homo sapiens
[11] = target: T2, Tumor necrosis factor; assay: TNFa-triggered NF-kB activation inhibitors, SAR follow-up, cell-based, set 2 (AID 2483); type: functional
[12] = system: HEK293; assay: cells; type: functional, cell-based; conditions: Homo sapiens; remark: listed apart in the source
[13] = target: T3, Nucleotide-binding oligomerization domain-containing protein 1 (Homo sapiens, UniProt Q9Y239); assay: NOD1 signaling inhibitors, SAR follow-up, revised (AID 2333); type: functional
T3 sequence (Q9Y239 whole entry): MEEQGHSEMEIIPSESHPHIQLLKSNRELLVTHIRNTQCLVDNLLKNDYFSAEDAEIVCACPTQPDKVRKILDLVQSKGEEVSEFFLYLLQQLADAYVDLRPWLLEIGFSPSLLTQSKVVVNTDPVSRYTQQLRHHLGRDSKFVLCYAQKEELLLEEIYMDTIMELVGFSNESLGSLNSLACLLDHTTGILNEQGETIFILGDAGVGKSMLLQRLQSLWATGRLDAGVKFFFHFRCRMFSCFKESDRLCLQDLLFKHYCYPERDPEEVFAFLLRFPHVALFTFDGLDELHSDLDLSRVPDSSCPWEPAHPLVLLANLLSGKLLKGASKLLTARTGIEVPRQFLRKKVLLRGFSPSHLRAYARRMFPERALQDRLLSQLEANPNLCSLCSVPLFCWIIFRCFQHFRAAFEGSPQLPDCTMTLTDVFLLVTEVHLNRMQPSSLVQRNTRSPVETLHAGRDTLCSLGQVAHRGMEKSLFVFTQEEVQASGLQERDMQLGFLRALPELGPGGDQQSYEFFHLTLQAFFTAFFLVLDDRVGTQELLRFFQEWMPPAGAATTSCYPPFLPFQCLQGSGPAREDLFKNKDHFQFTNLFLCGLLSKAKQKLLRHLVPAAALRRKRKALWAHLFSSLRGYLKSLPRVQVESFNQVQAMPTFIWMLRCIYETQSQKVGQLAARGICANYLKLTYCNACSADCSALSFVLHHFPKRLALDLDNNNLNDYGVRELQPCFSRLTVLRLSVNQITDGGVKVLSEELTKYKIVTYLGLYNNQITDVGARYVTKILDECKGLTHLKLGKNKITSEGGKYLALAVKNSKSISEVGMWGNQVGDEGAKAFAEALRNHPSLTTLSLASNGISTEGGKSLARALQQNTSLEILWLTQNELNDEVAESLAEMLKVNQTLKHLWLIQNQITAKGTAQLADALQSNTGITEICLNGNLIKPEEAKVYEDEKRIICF

[14] = target: T3, Nucleotide-binding oligomerization domain-containing protein 1; assay: SAR analysis of compounds that inhibit NOD1 - Set 2. [Related pubchem assays (depositor defined):AID1566, AID1575, AID1578, AID1849, AID1852, AID2333, AID2335, AID2798]; type: functional
[15] = target: DNA dC->dU-editing enzyme APOBEC-3A (Homo sapiens, UniProt P31941); assay: Dose Response confirmation of small molecule APOBEC3A DNA Deaminase Inhibitors via a fluorescence-based single-stranded DNA deaminase assay. [Related pubchem assays (depositor defined):AID493011, AID493024]; type: functional
[16] = target: DNA dC->dU-editing enzyme APOBEC-3G (Homo sapiens, UniProt Q9HC16); type: functional;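 also: Dose-response counterscreen measuring inhibition of APOBEC3G DNA deaminase activity, run while confirming APOBEC3A inhibitors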
[17] = target: Troponin, cardiac muscle (Homo sapiens, UniProt P19429+P45379+P63316); assay: Fluorescence-based biochemical high throughput dose response assay for activators of the calcium sensitivity of cardiac Regulated Thin Filaments (RTF). [Related pubchem assays (depositor defined):AID493008, AID493018, AID504382, AID504383]; type: protein-complex assay
[18] = target: Ion channel NompC (Danio rerio, UniProt Q7T1G6); assay: Dose response cell-based high-throughput screening assay for agonists of the transient receptor potential channel N1 (TRPN1). [Related pubchem assays (depositor defined):AID1424, AID1448]; type: functional
[19] = HeLa cell cytotoxicity, dose response, cytotoxicity control for MgcRacGAP inhibitor project (AID 624300); type: functional
[20] = target: T4, Mucolipin-3 (Homo sapiens, UniProt Q8TDD5); assay: Fluorescence counterscreen assay for […] agonists: dose response cell-based high-throughput screening assay to identify agonists of the transient receptor potential channel ML3 (TRPML3). [Related pubchem assays: 1424, 1448 ]; type: functional
T4 sequence (Q8TDD5 whole entry): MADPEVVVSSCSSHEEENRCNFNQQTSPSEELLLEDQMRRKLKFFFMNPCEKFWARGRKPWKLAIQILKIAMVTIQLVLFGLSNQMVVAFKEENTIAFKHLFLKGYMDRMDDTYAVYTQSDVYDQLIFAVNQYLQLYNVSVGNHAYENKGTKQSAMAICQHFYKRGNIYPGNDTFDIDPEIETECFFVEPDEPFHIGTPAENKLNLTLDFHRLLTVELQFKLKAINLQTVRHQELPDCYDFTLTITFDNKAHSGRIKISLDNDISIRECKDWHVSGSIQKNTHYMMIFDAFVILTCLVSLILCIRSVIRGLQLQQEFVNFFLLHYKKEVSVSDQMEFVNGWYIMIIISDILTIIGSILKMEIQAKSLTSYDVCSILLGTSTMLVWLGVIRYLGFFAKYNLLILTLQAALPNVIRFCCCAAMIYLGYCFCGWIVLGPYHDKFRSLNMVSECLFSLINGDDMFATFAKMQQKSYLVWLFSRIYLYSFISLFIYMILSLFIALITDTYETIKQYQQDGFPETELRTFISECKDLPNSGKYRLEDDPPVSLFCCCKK

[21] = target: Eukaryotic translation initiation factor 4E (Mus musculus, UniProt P63073); assay: eIF4E–eIF4G protein interaction inhibitors, dose response, biochemical, TR-FRET (AID 855); type: functional;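 also: potency for disrupting eIF4E binding to eIF4GI seen as loss of FRET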
[22] = target: T5, Rac GTPase-activating protein 1 (Homo sapiens, UniProt Q9H0H5); assay: MgcRacGAP GTPase-activating activity inhibitors, confirmation, biochemical, ADP Hunter fluorescence, primary and confirmatory (AID 624330); type: functional
T5 sequence (Q9H0H5 whole entry): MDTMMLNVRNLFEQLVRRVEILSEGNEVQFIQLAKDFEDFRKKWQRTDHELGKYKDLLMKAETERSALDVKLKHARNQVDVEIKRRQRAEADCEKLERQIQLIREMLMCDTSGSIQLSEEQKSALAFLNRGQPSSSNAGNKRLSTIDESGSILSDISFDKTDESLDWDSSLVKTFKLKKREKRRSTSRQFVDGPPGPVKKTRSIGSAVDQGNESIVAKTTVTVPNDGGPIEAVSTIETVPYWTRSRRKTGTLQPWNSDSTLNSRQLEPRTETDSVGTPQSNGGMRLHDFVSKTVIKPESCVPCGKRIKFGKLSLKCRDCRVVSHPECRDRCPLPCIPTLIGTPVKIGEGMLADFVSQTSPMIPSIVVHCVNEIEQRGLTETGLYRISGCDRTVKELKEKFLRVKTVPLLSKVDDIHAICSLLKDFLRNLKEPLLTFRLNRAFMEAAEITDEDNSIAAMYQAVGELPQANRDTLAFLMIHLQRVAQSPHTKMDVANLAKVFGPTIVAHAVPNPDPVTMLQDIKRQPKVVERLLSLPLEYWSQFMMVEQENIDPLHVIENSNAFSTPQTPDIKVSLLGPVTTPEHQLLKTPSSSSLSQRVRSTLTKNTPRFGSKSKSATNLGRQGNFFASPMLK

[23] = target: T6, Sphingosine 1-phosphate receptor 4 (Homo sapiens, UniProt O95977); assay: Late-stage fluorescence dose response cell-based assay to identify agonists of the Sphingosine 1-Phosphate Receptor 4 (S1P4): purchased compounds EC50. [Related pubchem assays (depositor defined):AID1509, AID1523, AID1563, AID1686, AID1701, AID1801]; type: functional
T6 sequence (O95977 whole entry): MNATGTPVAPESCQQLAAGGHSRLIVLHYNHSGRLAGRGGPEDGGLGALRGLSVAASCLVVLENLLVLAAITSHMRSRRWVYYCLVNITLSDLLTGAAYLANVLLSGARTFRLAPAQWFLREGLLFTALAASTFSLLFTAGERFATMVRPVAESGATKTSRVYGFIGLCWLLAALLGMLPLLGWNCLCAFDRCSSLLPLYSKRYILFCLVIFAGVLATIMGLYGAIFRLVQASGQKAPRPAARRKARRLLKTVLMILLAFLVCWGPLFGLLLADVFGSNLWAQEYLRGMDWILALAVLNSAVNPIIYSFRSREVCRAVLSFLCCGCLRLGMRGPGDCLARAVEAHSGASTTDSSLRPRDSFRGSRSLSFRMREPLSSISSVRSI

For `Cc1cc(SCC(=O)OC/C(O)=C(\C#N)c2nc3ccccc3[nH]2)c(C)cc1Br`, the IC50 [1] was > 20 µM (inactive), the IC50 [2] was 5.19 µM (active) and the IC50 [3] was 5.41 µM (inactive). The EC50 [4] was > 20 µM (inactive), the IC50 [5] was > 20 µM (inactive) and the IC50 [6] was > 20 µM (inactive). The IC50 [7] was 18.9 µM (active), the IC50 [8] was > 20 µM (inactive) and the EC50 [9] was > 20 µM (inactive). The IC50 [10] was > 20 µM (inactive), the IC50 [11] was > 20 µM (inactive) and the IC50 [12] was > 20 µM (inactive). The IC50 [13] was > 20 µM (inactive) and the IC50 [14] was 5.95 µM (active).
In the case of `O=C(CNC(=O)OCc1ccccc1)Nc1ccc(F)cc1`, the IC50 [15] is reported as 3.04 µM (active) and the IC50 [16] is reported as 5.01 µM (active).
With `COc1cc(/C=C(\C#N)c2nc3ccccc3[nH]2)cc(OC)c1O` the EC50 [17] was 4.89 µM (active), the EC50 [18] was 3.62 µM (active) and the CC50 [19] was 100 µM (active). For the same compound, the EC50 [20] was 8.88 µM (active), the IC50 [21] was 50 µM (inactive) and the IC50 [22] was 20 µM (active).
In the case of `Cc1ccc(OCc2ccc(Cl)c(Cl)c2)c([N+](=O)[O-])n1`, the EC50 [23] is reported as > 50 µM (inactive).
